Measurements reported in ChEMBL document CHEMBL5126603, “Discovery of Clinical Candidate CHF-6366: A Novel Super-soft Dual Pharmacology Muscarinic Antagonist and β2 Agonist (MABA) for the Inhaled Treatment of Respiratory Diseases” (J Med Chem, 2022).

What was measured:
[1] = AUCinfinity in Dunkin-Hartley guinea pig plasma at 500 nmol/Kg, IT(Intratracheal) measured after 72 hrs by LC/MS-MS analysis; format: ADME, cell-free, Cavia porcellus; design: dose 500 nmol/kg, time 72 hrs, route it(Intratracheal); settings: inhaled or intranasal
Trachea [2] = assay: (§1) Bifunctional antagonist activity at muscarinic M3 receptor /agonist activity at beta-2 adrenoceptor in Dunkin-Hartley guinea pig trachea assessed as inhibition of acetylcholine induced bronchoconstriction at 0.3 nmol/Kg, IT(Intratracheal) measured after 1 hr by Konzett-Roessler methodology relative to control; format: functional; settings: Cavia porcellus
[3] = Apparent permeability across apical to basolateral side in human Caco-2 cells at 10 uM and measured after 2 hrs by LC-MS/MS analysis; format: ADME, cell-based
Trachea [4] = assay: as §1, with “acetylcholine-induced” for “acetylcholine induced”, “1” for “0.3”, “30 mins” for “1 hr”; format: functional; settings: Cavia porcellus, 0.5 h
[5] = In vivo antagonist activity at muscarinic M3 receptor in Dunkin-Hartley guinea pig trachea assessed as inhibition of acetylcholine induced bronchoconstriction at 1 nmol/Kg, IT(Intratracheal) measured after 1 hr in presence of ICI-118551 by Konzett-Roessler methodology relative to control; format: functional; settings: Cavia porcellus
[6] = Metabolic stability in human plasma assessed as half life at 5 uM measured upto 120 mins by LC-MS/MS analysis; format: ADME, cell-free
Trachea [7] = assay: as §1, with “acetylcholine-induced” for “acetylcholine induced”, “30 mins” for “1 hr”; format: functional; settings: Cavia porcellus, 0.5 h
[8] = Cmax in Dunkin-Hartley guinea pig plasma at 500 nmol/Kg, IT(Intratracheal) measured after 72 hrs by LC/MS-MS analysis; format: ADME, cell-free, Cavia porcellus; design: dose 500 nmol/kg, time 72 hrs, route it(Intratracheal); settings: inhaled or intranasal
Trachea [9] = assay: In vivo bifunctional antagonist activity at muscarinic M3 receptor /agonist activity at beta-2 adrenoceptor in Dunkin-Hartley guinea pig trachea assessed as inhibition of carbachol induced contraction; format: functional, tissue-based; settings: Cavia porcellus
[10] = AUCinfinity in Dunkin-Hartley guinea pig lung at 500 nmol/Kg, IT(Intratracheal) measured after 72 hrs by LC/MS-MS analysis; format: ADME, tissue-based, Cavia porcellus; design: dose 500 nmol/kg, time 72 hrs, route it(Intratracheal); settings: in vivo, inhaled_or_intranasal
[11] = target: 5-hydroxytryptamine receptor 1B (Homo sapiens) (UniProt P28222); assay: Inhibition of 5-HT1B receptor (unknown origin) at 10 uM relative to control
Chain of 5-hydroxytryptamine receptor 1B (Homo sapiens) (P28222 whole entry): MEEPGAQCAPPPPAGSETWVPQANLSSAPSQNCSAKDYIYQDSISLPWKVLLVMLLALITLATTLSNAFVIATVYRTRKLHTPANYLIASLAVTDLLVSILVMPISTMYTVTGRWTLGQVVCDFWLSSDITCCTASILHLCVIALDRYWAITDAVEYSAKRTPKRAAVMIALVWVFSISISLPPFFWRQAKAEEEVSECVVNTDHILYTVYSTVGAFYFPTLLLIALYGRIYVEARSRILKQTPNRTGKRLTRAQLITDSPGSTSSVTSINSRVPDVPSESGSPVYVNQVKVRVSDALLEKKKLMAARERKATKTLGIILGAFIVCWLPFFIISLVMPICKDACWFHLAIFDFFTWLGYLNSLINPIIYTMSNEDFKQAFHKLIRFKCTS

Trachea [12] = assay: as §1, with “acetylcholine-induced” for “acetylcholine induced”, “15 mins” for “1 hr”; format: functional; settings: Cavia porcellus, 0.25 h
Trachea [13] = assay: as §1, with “1” for “0.3”; format: functional; settings: Cavia porcellus
Trachea [14] = assay: as §1, with “acetylcholine-induced” for “acetylcholine induced”, “0.1” for “0.3”, “30 mins” for “1 hr”; format: functional; settings: Cavia porcellus, 0.5 h
Trachea [15] = assay: as §1, with “1” for “0.3”, “24” for “1”; format: functional; settings: Cavia porcellus
Trachea [16] = assay: as §1, with “acetylcholine-induced” for “acetylcholine induced”, “0.1” for “0.3”, “15 mins” for “1 hr”; format: functional; settings: Cavia porcellus, 0.25 h
[17] = Efflux ratio of apparent permeability from basolateral to apical side over apical to basolateral side in human Caco-2 cells at 10 uM and measured after 2 hrs by LC-MS/MS analysis; format: ADME, cell-based
[18] = Toxicity in INH dosed dog assessed as maximum tolerated dose measured after 7 days; format: organism-based, Canis lupus familiaris; settings: in vivo, inhaled or intranasal, time 7 day
[19] = In vivo antagonist activity at muscarinic M3 receptor in Dunkin-Hartley guinea pig trachea assessed as inhibition of acetylcholine induced bronchoconstriction at 0.3 nmol/Kg, IT(Intratracheal) measured after 24 hr in presence of ICI-118551 by Konzett-Roessler methodology relative to control; format: functional; settings: Cavia porcellus
[20] = Cmax in Dunkin-Hartley guinea pig lung at 500 nmol/Kg, IT(Intratracheal) measured after 72 hrs by LC/MS-MS analysis; format: ADME, tissue-based, Cavia porcellus; design: time 72 hrs, dose 500 nmol/kg, route it(Intratracheal); settings: inhaled or intranasal
[21] = Metabolic stability in rat hepatocytes assessed as clearance at 1 uM measured per 10^6 cells and incubated upto 90 mins by LC-MS/MS analysis; format: ADME, cell-based, Hepatocyte; settings: read-out: CLH

Structure (SMILES): Cn1nc(C(=O)OCCCCNC[C@H](O)c2ccc(O)c3[nH]c(=O)ccc23)cc1COc1cccc([C@@H](NC(=O)O[C@H]2CN3CCC2CC3)c2ccccc2)c1
- AUC(0-inf) [1]: 661 ng·h/mL
- inhibition in vivo at 0.0003 µmol/kg (Trachea [2]): 58.4%
- Papp A→B at 2 h, 10 µM [3]: 2.4 ×10⁻⁶ cm/s
- inhibition in vivo at 0.001 µmol/kg (Trachea [4]): 90.8%
- inhibition in vivo at 0.001 µmol/kg [5]: 84.1%
- half-life at 5 µM [6]: 20 min
- inhibition in vivo at 0.0003 µmol/kg (Trachea [7]): 65.9%
- Cmax [8]: 126 ng/g
- IC50 (Trachea [9]): 0.316 nM
- AUC [10]: 725199 ng·h/g
- inhibition [11]: > 65%
- inhibition in vivo at 0.0003 µmol/kg (Trachea [12]): 66.2%
- inhibition in vivo at 0.001 µmol/kg (Trachea [13]): 92.4%
- inhibition in vivo at 0.0001 µmol/kg (Trachea [14]): 33.1%
- inhibition in vivo at 0.001 µmol/kg (Trachea [15]): 74.8%
- inhibition in vivo at 0.0001 µmol/kg (Trachea [16]): 25.1%
- efflux ratio at 2 h, 10 µM [17]: 0.7
- MTD at 168 h [18]: 0.124 mg/kg/day
- inhibition in vivo at 0.0003 µmol/kg [19]: 30.1%
- Cmax [20]: 28400 ng/g
- hepatocyte CLint at 1 µM [21]: 32 µL/min/1e6 cells
